Patent publication US20250090441A1, “ANTI-CARIES PEPTIDES WITH ANTIMICROBIAL AND REMINERALIZING PROPERTIES AND METHODS THEREOF” (THE UNIVERSITY OF HONG KONG, priority 2023, published 2025)
Converted amounts (≈) assume the structure as drawn. Where a SMILES comes first, the peptide text is derived from it.

Experiments:
[1] = test system: Actinobacillus actinomycetemcomitans ATCC 29523; assay type: cell-based
Procedure: (§1) Common oral pathogenic bacterial strains were selected for this study. Streptococcus mutans ATCC 35668, Streptococcus sobrinus ATCC 33478, Lactobacillus acidophilus ATCC 9224, Lactobacillus rhamnosus ATCC10863, Actinomyces naeslundii ATCC 12104, Enterococcus faecalis ATCC 29212, Porphyromonas gingivalis ATCC 33277, and Actinobacillus actinomycetemcomitans ATCC 29523. All the strains were cultured anaerobically.
(§2) Brain heart infusion (BHI) medium was used for culture of S. mutans, S. sobrinus, L. acidophilus, L. rhamnosus, A. naeslundii, E. faecalis, and A. actinomycetemcomitans, whereas p.g. broth was used for culture of Porphyromonas gingivalis. The standard dilution method in a 96-well microplate was conducted in order to evaluate the antimicrobial efficacy of GAPI. Each well was filled with […] GAPI dilutions. In addition, serial twofold dilutions in concentrations ranging from 1280 μM to 1.25 μM were prepared. A 10 μL bacterial culture (10^6 CFU/mL) was added. Chlorhexidine was used as positive control, and medium was used as negative control. The plates were then anaerobically incubated at 37° C. for 24 h. The absorbance was measured at a wavelength of 660 nm in order to analyze the growth of microorganisms. […] The MBC endpoint was the lowest concentration at which 99.9% of the bacterial population was killed, which thus means the absence of bacteria. The morphology of the bacteria and fungi treated with synthesized peptides was analysed using transmission electron microscopy (TEM) (Philips CM100, Philips/FEI Corporation, Eindhoven, Holland). The sample was prepared following a previous study (Niu et al. 2021d). Copper grids were used to contain the semi-thin sections of bacteria/fungi for examination.

[2] = test system: Actinomyces naeslundii ATCC 12104; assay type: cell-based
Procedure: as §1, §2

[3] = test system: Enterococcus faecalis ATCC 29212; assay type: cell-based
Procedure: as §1, §2

[4] = test system: Lactobacillus acidophilus ATCC 9224; assay type: cell-based
Procedure: as §1, §2

[5] = test system: Lactobacillus rhamnosus ATCC10863; assay type: cell-based
Procedure: as §1, §2

[6] = test system: Porphyromonas gingivalis ATCC 33277; assay type: cell-based
Procedure: as §1, §2

[7] = test system: Streptococcus sobrinus ATCC 33478; assay type: cell-based
Procedure: as §1, §2

[8] = Stability in human saliva (HPLC); assay type: in vitro ADME
Procedure: The stability of peptides in human saliva was investigated by testing the remaining peptide concentration via HPLC system (Waters Pacific Pte Ltd, Singapore). The saliva with peptides was mixed and incubated for 0, 15, 30, 45 and 60 min. The test was processed following a previous experimental protocol (Huang et al. 2016).

[9] = test system: Human gingival fibroblast (HGF-1) cells; assay: Biocompatibility, cytotoxicity by Cell Counting Kit-8 Assay; assay type: cell-based
Procedure: The biocompatibility of GAPI was evaluated by cytotoxicity assay using Cell Counting Kit-8 Assay (CCK-8, Apexbio, MA, USA) (Zhang et al. 2019). Human gingival fibroblast (HGF-1, Otwo Biotech Inc., China) cells (1×10^5/mL) were cultured and treated with GAPI. The cells cultured with the only medium were negative controls. The optical density values indicating the number of viable cells was measured at 450 nm after 24 h of incubation.

[10] = Effect on hard tissue, biofilm remineralization cycling model (micro-CT, FTIR); settings: carious dentine, 160 μM GAPI
Source text: Dentine slices, 2 mm thick, were cut from sound extracted third molars. Ultra-fine 4000-grit sandpaper was used to polish these slices. Slices with defects were eliminated based on a stereomicroscope observation. A total of forty dentine slices were selected. Each slice was separated into two blocks and assigned to two groups. Nail varnish was used to coat half of the blocks as an internal control. S. mutans American Type Culture Collection 35668 was utilized in the present study. All the dentine blocks were placed into S. mutans culture (10^8 cells/mL) in a brain-heart infusion (BHI) broth containing 5% glucose to generate artificial caries. After a 3-day anaerobic culture at 37° C., the depth of the caries lesion surface was around 96 μm, which was observed using micro-computed tomography (micro-CT).
Two blocks from the same slice were assigned to the GAPI group (160 μM GAPI) and control group (deionized water) separately. All the blocks underwent a biochemical model involving chemical remineralization and an S. mutans biofilm challenge for seven days. The remineralization solution (pH 7.0) consisted of 1.5 mm calcium chloride, 150 mm potassium chloride, 0.9 mm potassium dihydrogen phosphate, and 20 mm 4-(2-hydroxyethyl)-1-piperazineethanesulfonic acid. The cycling process included 8 h of immersion in the remineralization solution and 16 h of immersion in an S. mutans biofilm medium.
Micro-CT (SkyScan 1272, Antwerp, Belgium) was employed to evaluate the lesion depths and mineral losses (n=8 for each group). The X-ray source parameters were set at an 80 kV voltage and 100 μA current with an image pixel size of 10 μm. Moreover, two standard mineral cylindrical phantoms (Bruker, Kontich, Belgium) with mineral density values (MDVs, gHApcm^−3) of 0.25 gHApcm^−3 and 0.75 gHApcm^−3 were scanned to calibrate the blocks' greyscales. The NRecon reconstruction software (Version 1.7.4.6, SkyScan, Antwerp, Belgium) was utilized to reconstruct the scanning images. The CTAn data analysis software (CTAn version 1.20.3.0, Skyscan NV, Kontich, Belgium) was employed to analyze the cross-sectional images. The lesion depths were measured, and the images' greyscale values were calibrated. Subsequently, the demineralized and control areas were calculated into the MDV for each block. The mineral loss was determined as the difference between the MDV of the control and the MDV of the demineralized area (Niu et al., 2022).
FTIR (Spectrum Two, PerkinElmer, Waltham, MA, USA) was employed to examine the changes in the dentin's chemical structures (n=8 for each group). […] The ratio of the HPO4^2− to amide I absorbance area represented the degree of demineralization in the dentin.

[11] = 7 days cycling, micro-CT, n = 8

Question: Which results are given for `CC(C)[C@@H]1NC(=O)[C@H](CCCN=C(N)N)NC(=O)[C@H](Cc2ccccc2)NC(=O)[C@@H](NC(=O)[C@H](Cc2c[nH]c3ccccc23)NC(=O)[C@H](CCCN=C(N)N)NC(=O)[C@H](CCCN=C(N)N)NC(=O)c2cc(O)c(O)c(O)c2)CSSC[C@@H](C(=O)N[C@@H](CCCN=C(N)N)C(=O)O)NC(=O)[C@H](CCCCN)NC(=O)[C@H](CCCN=C(N)N)NC(=O)[C@H](Cc2ccc(O)cc2)NC(=O)[C@@H]2CSSC[C@H](NC1=O)C(=O)N[C@@H](Cc1ccc(O)cc1)C(=O)N[C@@H](CCCN=C(N)N)C(=O)NCC(=O)N[C@@H](Cc1ccccc1)C(=O)N2` [GAPI, Gallic-Acid-Polyphemusin-I] (HELM PEPTIDE1{[O=C(c1cc(O)c(O)c(O)c1)[*:2]].R.R.W.C.F.R.V.C.Y.R.G.F.C.Y.R.K.C.R}$PEPTIDE1,PEPTIDE1,5:R3-18:R3|PEPTIDE1,PEPTIDE1,9:R3-14:R3$$$V2.0)?
Answer: MBC ([1]; ATCC 29523): 320 µM (≈ 834 µg/mL); MIC ([1]; ATCC 29523, anaerobic, 24 h): 160 µM (≈ 417 µg/mL); MBC ([2]; ATCC 12104): 640 µM (≈ 1670 µg/mL); MIC ([2]; ATCC 12104, anaerobic, 24 h): 160 µM (≈ 417 µg/mL); MBC ([3]; ATCC 29212): 640 µM (≈ 1670 µg/mL); MIC ([3]; ATCC 29212, anaerobic, 24 h): 160 µM (≈ 417 µg/mL); MBC ([4]; ATCC 9224): 80 µM (≈ 209 µg/mL); MIC ([4]; ATCC 9224, anaerobic, 24 h): 40 µM (≈ 104 µg/mL); MBC ([5]; ATCC 10863): 160 µM (≈ 417 µg/mL); MIC ([5]; ATCC 10863, anaerobic, 24 h): 20 µM (≈ 52.1 µg/mL); MBC ([6]; ATCC 33277): 640 µM (≈ 1670 µg/mL); MIC ([6]; ATCC 33277, anaerobic, 24 h): 320 µM (≈ 834 µg/mL); MBC ([7]; ATCC 33478): 320 µM (≈ 834 µg/mL); MIC ([7]; ATCC 33478, anaerobic, 24 h): 80 µM (≈ 209 µg/mL); stable in saliva (time) [8]: at least 60 min; remaining at 0.25 h ([8]; human, 15 min, read-out: remaining percentage after incubation in human saliva): 98.9%; remaining at 0.5 h ([8]; human, 30 min, read-out: remaining percentage after incubation in human saliva): 98.6%; remaining at 0.75 h ([8]; human, 45 min, read-out: remaining percentage after incubation in human saliva): 96.8%; remaining at 1 h ([8]; human, 60 min, read-out: remaining percentage after incubation in human saliva): 94.4%; optical density values (450 nm, viable cells) versus negative control ([9]; 80, 160, 320 and 640 μM, HGF-1 cells, 24 h): no significant difference; cytotoxicity to HGF-1 cells ([9]; CCK-8, 24 h): low cytotoxicity; lesion depths [10]: 151±18 μm; Hydrogen phosphate-to-amide I ratio ([10]; 7 days cycling, FTIR, n = 8): 2.92±0.82; Lesion depth [10, 11]: 151 ± 18 μm; Mineral loss [10, 11]: 0.91±0.07 gHAcm^−3
